Where two headings read alike, the source gives them in different places. No end group written: not given here.
Legend:
E. coli UB1005 = format: cell-based, Escherichia coli; settings: for E. coli UB1005 MIC: mean of three, 16 to 20 hours at 35° C., in µg/mL
[1] = tested on: yeast (Saccharomyces cerevisiae); experiment: Antimicrobial assay I, yeast assay in RPMI 1640; format: cell-based; settings: RPMI 1640 media
S. typhimurium 14028S = format: cell-based, Salmonella typhimurium; settings: for S. typhimurium 14028S MIC: mean of three, 16 to 20 hours at 35° C., in µg/mL
BMKC = experiment: Anti-cancer assay, MTT, LD50; format: cell-based; settings: BMKC cloned melanoma line, 24 hours with peptide
From the text: (§1) Numbers are LD50 values (μg/mL).

H1299 = experiment: Anti-cancer assay, MTT, LD50; format: cell-based; settings: 24 hours with peptide, lung large cell carcinoma
From the text: as §1

SW480 = experiment: Anti-cancer assay, MTT, LD50; format: cell-based; settings: SW480 colon adenocarcinoma line, 24 hours with peptide
From the text: as §1

HeLaS3 = experiment: Anti-cancer assay, MTT, LD50; format: cell-based; settings: 24 hours with peptide, cervical carcinoma
From the text: as §1

PC3 = experiment: Anti-cancer assay, MTT, LD50; format: cell-based; settings: 24 hours with peptide, prostate adenocarcinoma
From the text: as §1

MCF7 = experiment: Anti-cancer assay, MTT, LD50; format: cell-based; settings: MCF7 breast adenocarcinoma line, MTT, 24 hours with peptide
From the text: as §1

P. aeruginosa H374 [2] = format: cell-based, Pseudomonas aeruginosa; settings: for P. aeruginosa H374 MIC: mean of three, 16 to 20 hours at 35° C.
[3] = tested on: human red blood cells (RBC); experiment: in vitro; format: cell-based; settings: hemolytic assay, concentration at 50% hemolysis, 1 hour at 37° C.
WI38 = settings: MTT, 24 hours with peptide; for WI38 LD50: normal fibroblast line
[4] = tested on: Staphylococcus aureus ATCC 6538; experiment: Antimicrobial assay I, MIC by OD measurement; format: cell-based; settings: 37° C. for 24 hours, absorbance 620 nm
[5] = tested on: Pseudomonas aeruginosa ATCC 9027; experiment: Antimicrobial assay I, MIC by OD measurement; format: cell-based; settings: 37° C. for 24 hours, absorbance 620 nm
P. aeruginosa H774 = format: cell-based, Pseudomonas aeruginosa; settings: P. aeruginosa H744; nalidixic acid + peptide at ¼ MIC; 0.5 or less = synergy
Outline: (§2)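 Synergy against efflux-mutant strains: two-fold dilutions of nalidixic acid or chloramphenicol tested with peptide held at ¼ of its MIC.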

P. aeruginosa H374 [6] = format: cell-based, Pseudomonas aeruginosa; settings: for MIC Cm-comb.: MIC of chloramphenicol with peptide at ¼ MIC; for MIC Nal-comb.: MIC of nalidixic acid with peptide at ¼ MIC; for FIC Index: 0.5 or less = synergy
Outline: as §2

P. aeruginosa = format: cell-based, Pseudomonas aeruginosa; settings: P. aeruginosa H744; MIC of nalidixic acid with peptide at ¼ MIC
Outline: as §2

in vitro [7] = settings: human, WI38 normal lung fibroblast cells, LD50 WI38, WI38 normal lung fibroblast line, MTT, 24 hours with peptide
[8] = tested on: Pseudomonas aeruginosa H187; format: cell-based; settings: in µg/mL
[9] = tested on: Candida glabrata ATCC15126; experiment: Antimicrobial assays II, NCCLS broth microdilution MIC; format: cell-based; settings: in µg/mL
S. aureus (MRSA) = format: cell-based, Staphylococcus aureus; settings: for S. aureus (MRSA) MIC: mean of three, 16 to 20 hours at 35° C.
S. pyogenes M76 = experiment: Antimicrobial assays II, NCCLS broth microdilution MIC; format: cell-based, Streptococcus pyogenes; settings: mean of three; 16 to 20 hours at 35° C.
S. pneumoniae C719 = experiment: as above; format: cell-based, Streptococcus pneumoniae; settings: mean of three, in µg/mL
in vitro [10] = format: cell-based, human; settings: human, human red blood cells, pH 7, hemolytic assay, concentration at 50% hemolysis, 1 hour at 37° C.; read-out: LD50
S. pyogenes ATCC19615 = experiment: Antimicrobial assays II, NCCLS broth microdilution MIC; format: cell-based, Streptococcus pyogenes; settings: mean of three, in µg/mL
S. pneumoniae C718 = experiment: as above; format: cell-based, Streptococcus pneumoniae; settings: mean of three
S. epidermidis C621 = format: cell-based, Staphylococcus epidermidis; settings: for S. epidermidis C621 MIC: mean of three, 16 to 20 hours at 35° C.
Candida albicans 105 = format: cell-based; settings: Table 13; in µg/mL
[11] = chloramphenicol + peptide at ¼ MIC
[12] = nalidixic acid + peptide at ¼ MIC, FIC=0.25+MIC comb/MIC alone

Compound | yeast (MIC or MFC) [1] [µg/mL] | LD50 BMKC (BMKC) | H1299 LD50 (H1299) | LD50 SW480 (SW480) | HeLaS3 LD50 (HeLaS3) | PC3 LD50 (PC3) | LD50 MCF7 (MCF7) | WI38 LD50 (WI38) | staph6538 (MIC) [4] | paerug9027 (MIC) [5] [µg/mL] | FIC Index (P. aeruginosa H774) | MIC Cm-comb. (P. aeruginosa H374 [6]) [µg/mL] | MIC Nal-comb. (P. aeruginosa H374 [6]) [µg/mL] | FIC Index (P. aeruginosa H374 [6]; [11]) | FIC Index (P. aeruginosa H374 [6]; [12]) | MIC Nal-comb. (P. aeruginosa) [µg/mL] | CC50 at 24 h (in vitro [7]) [µg/mL] | MIC P. aeruginosa H187 ([8]; Table 8) | MIC C. glabrata ATCC15126 ([9]; Table 8) | other results
FAKKLLAKALKL-NH2 [P110] | 200 | 400 µg/mL | 95 µg/mL | 325 µg/mL | 540 µg/mL | > (> indicates greater than 1000) | 180 µg/mL | 45 µg/mL | > (> indicates greater than 200 μg/mL) | 200 | 1.25 | 16 | 2500 | 1.25 | 0.75 | 624 | 45 | – | – | E. coli UB1005 MIC (E. coli UB1005): 16; S. typhimurium 14028S MIC (S. typhimurium 14028S): 32; P. aeruginosa H374 MIC (P. aeruginosa H374 [2]): 8 µg/mL; LD50 [3]: > (> indicates greater than 1000)
FAKKLLAKALKL-NH2 [P110 (74)] | – | – | – | – | – | – | – | – | – | – | – | – | – | – | – | – | – | 64 | 128 | –
CC[C@H](C)[C@H](N)C(=O)N[C@@H](CC(C)C)C(=O)N1CCC[C@H]1C(=O)N[C@@H](Cc1c[nH]c2ccccc12)C(=O)N[C@@H](CCCCN)C(=O)N[C@@H](Cc1c[nH]c2ccccc12)C(=O)N1CCC[C@H]1C(=O)N[C@@H](Cc1c[nH]c2ccccc12)C(=O)N[C@@H](Cc1c[nH]c2ccccc12)C(=O)N1CCC[C@H]1C(=O)N[C@@H](Cc1c[nH]c2ccccc12)C(=O)N[C@@H](CCCNC(=N)N)C(=O)N[C@@H](CCCNC(=N)N)C(N)=O [P63, reference compound] | – | 200 µg/mL | 270 µg/mL | 345 µg/mL | 345 µg/mL | 290 µg/mL | 64 µg/mL | – | – | – | – | – | – | – | – | – | – | – | – | S. aureus (MRSA) MIC (S. aureus (MRSA)): 32 µg/mL; S. pyogenes M76 MIC (S. pyogenes M76): 8 µg/mL; S. pneumoniae MIC (S. pneumoniae C719): 16; HC50 at 1 h (in vitro [10]): 375 µg/mL; S. pyogenes MIC (S. pyogenes ATCC19615): 8; S. pneumoniae MIC (S. pneumoniae C718): 128 µg/mL; S. epidermidis C621 MIC (S. epidermidis C621): 16 µg/mL
FAKKFAKKFKKFAKKFAKFAFAF-NH2 [P301 (147)] | – | – | – | – | – | – | – | – | – | – | – | – | – | – | – | – | – | – | – | MIC E. coli UB1005 (E. coli UB1005; Table 12): 8 µg/mL; MIC S. typhimurium 14028S (S. typhimurium 14028S; Table 12): 8 µg/mL; MIC S. aureus SAP0017 (S. aureus (MRSA); Table 13, strain SAP0017, in µg/mL): 8; MIC P. aeruginosa H374 (P. aeruginosa H374 [2]; Table 12, in µg/mL): 4; MIC P. aeruginosa H187 ([8]; Table 12): 8; MIC S. epidermis C621 (S. epidermidis C621; Table 13, in µg/mL): 4; MIC C. albicans 105 (Candida albicans 105): 32; MIC C. glabrata ATCC15126 ([9]; Table 13): 32
FAKKLAKLAKKLAKAL-NH2 [P109 (73)] | – | – | – | – | – | – | – | – | – | – | – | – | – | – | – | – | – | 64 | 128 | –
CC(C)C[C@H](NC(=O)[C@H](C)NC(=O)[C@H](CCCCN)NC(=O)[C@H](CC(C)C)NC(=O)[C@H](C)NC(=O)[C@H](CC(C)C)NC(=O)[C@H](C)NC(=O)[C@H](CC(C)C)NC(=O)[C@H](CCCCN)NC(=O)[C@H](C)NC(=O)[C@H](CC(C)C)NC(=O)[C@H](CCCCN)NC(=O)[C@H](CCCCN)NC(=O)[C@H](C)NC(=O)[C@H](CC(C)C)NC(=O)[C@H](CCCCN)NC(=O)[C@H](CCCCN)NC(=O)[C@H](CC(C)C)NC(=O)[C@H](CCCCN)NC(=O)[C@H](CCCCN)NC(=O)[C@H](C)NC(=O)[C@H](CC(C)C)NC(=O)[C@H](CCCCN)NC(=O)[C@H](CCCCN)NC(=O)[C@H](C)NC(=O)[C@@H](N)Cc1ccccc1)C(=O)N[C@@H](C)C(=O)N[C@@H](CC(C)C)C(=O)N[C@@H](CCCCN)C(=O)N[C@@H](C)C(=O)O [P100 (163)] | – | – | – | – | – | – | – | – | – | – | – | – | – | – | – | – | – | 32 | >128 | –
FAKLLAKLAKKL-NH2 [P49] | 50 | 115 µg/mL | 140 µg/mL | 100 µg/mL | – | 77 µg/mL | 40 µg/mL | 135 µg/mL | 10 µg/mL | 200 | 1.25 | 8 | 2500 | 0.75 | 0.75 | 624 | 135 | – | – | S. aureus (MRSA) MIC (S. aureus (MRSA)): 64 µg/mL; S. pyogenes M76 MIC (S. pyogenes M76): 8 µg/mL; S. pneumoniae MIC (S. pneumoniae C719): 32; HC50 at 1 h (in vitro [10]): 225 µg/mL; S. pyogenes MIC (S. pyogenes ATCC19615): 8; S. pneumoniae MIC (S. pneumoniae C718): 64 µg/mL; S. epidermidis C621 MIC (S. epidermidis C621): 8 µg/mL
FAKKLAKKLKKLAKLALAL-OH [P29 (14)] | – | – | – | – | – | – | – | – | – | – | – | – | – | – | – | – | – | 32 | 128 | –
FAKKLAKLAKKALAL-NH2 [P39, FAKKLAKLAKKALAL-NH2] | 100 | 510 µg/mL | 420 µg/mL | 435 µg/mL | 620 µg/mL | 310 µg/mL | 130 µg/mL | 300 µg/mL | 100 µg/mL | 25 | 1.25 | 8 | 1250 | 0.75 | 0.5 | 624 | 300 | – | – | E. coli UB1005 MIC (E. coli UB1005): 4; S. typhimurium 14028S MIC (S. typhimurium 14028S): 16; P. aeruginosa H374 MIC (P. aeruginosa H374 [2]): 16 µg/mL; LD50 [3]: > (> indicates greater than 1000)
FALALKALKKALKKLKKALKKAL-NH2 [P2, reference compound] | 25 | 128 µg/mL | 140 µg/mL | 46 µg/mL | 50 µg/mL | 44 µg/mL | 23 µg/mL | 66 µg/mL | 25 µg/mL | 100 | – | – | – | – | – | – | 66 | – | – | S. aureus (MRSA) MIC (S. aureus (MRSA)): 32 µg/mL; S. pyogenes M76 MIC (S. pyogenes M76): 4 µg/mL; S. pneumoniae MIC (S. pneumoniae C719): 32; HC50 at 1 h (in vitro [10]): 10 µg/mL; S. pyogenes MIC (S. pyogenes ATCC19615): 8; S. pneumoniae MIC (S. pneumoniae C718): 128 µg/mL; S. epidermidis C621 MIC (S. epidermidis C621): 8 µg/mL
FAKKLAKLAKKLAKAL-NH2 [P109] | 200 | > (> indicates greater than 1000) | > (> indicates greater than 1000) | > (> indicates greater than 1000) | > (> indicates greater than 1000) | > (> indicates greater than 1000) | > (> indicates greater than 1000) | > (> indicates greater than 1000) | > (> indicates greater than 200 μg/mL) | 200 | 1.25 | 16 | 2500 | 1.25 | 0.75 | 624 | – | – | – | E. coli UB1005 MIC (E. coli UB1005): 16; S. typhimurium 14028S MIC (S. typhimurium 14028S): 32; P. aeruginosa H374 MIC (P. aeruginosa H374 [2]): 8 µg/mL; LD50 [3]: > (> indicates greater than 1000); LD50 WI38 (WI38; WI38 normal lung fibroblast line): > (> indicates greater than 1000)

Source: US20050209157A1, “Short bioactive peptides and methods for their use” (priority 2001, published 2005)
